Laboratory results reported in doi:10.1101/854513v2 (biorxiv, 2020).
Positions count from the first letter of the chain named. Like-named read-outs stand apart in the source and are kept apart here.

Assays:
hM4Di [1] = target: T1, hM4Di (Homo sapiens, UniProt P08173, A203G/Y113C); assay: BRET G protein dissociation; assay type: cell-based
T1 sequence (P08173 1-479 Y113C/A203G): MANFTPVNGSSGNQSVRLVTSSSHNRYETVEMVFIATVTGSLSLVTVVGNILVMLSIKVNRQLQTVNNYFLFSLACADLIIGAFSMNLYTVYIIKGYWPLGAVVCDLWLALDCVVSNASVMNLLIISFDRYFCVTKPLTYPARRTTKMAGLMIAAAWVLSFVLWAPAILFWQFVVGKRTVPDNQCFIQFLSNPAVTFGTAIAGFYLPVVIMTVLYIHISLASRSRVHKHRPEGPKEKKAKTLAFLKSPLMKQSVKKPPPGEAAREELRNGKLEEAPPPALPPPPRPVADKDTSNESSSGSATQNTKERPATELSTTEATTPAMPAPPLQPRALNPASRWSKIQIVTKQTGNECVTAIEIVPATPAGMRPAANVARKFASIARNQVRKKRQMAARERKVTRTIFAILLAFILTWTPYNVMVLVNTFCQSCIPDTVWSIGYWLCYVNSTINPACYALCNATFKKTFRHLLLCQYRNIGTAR

hM5 = target: T2, hM5 (Homo sapiens, UniProt P08912); assay: radioligand competition binding
T2 sequence (P08912 1-532): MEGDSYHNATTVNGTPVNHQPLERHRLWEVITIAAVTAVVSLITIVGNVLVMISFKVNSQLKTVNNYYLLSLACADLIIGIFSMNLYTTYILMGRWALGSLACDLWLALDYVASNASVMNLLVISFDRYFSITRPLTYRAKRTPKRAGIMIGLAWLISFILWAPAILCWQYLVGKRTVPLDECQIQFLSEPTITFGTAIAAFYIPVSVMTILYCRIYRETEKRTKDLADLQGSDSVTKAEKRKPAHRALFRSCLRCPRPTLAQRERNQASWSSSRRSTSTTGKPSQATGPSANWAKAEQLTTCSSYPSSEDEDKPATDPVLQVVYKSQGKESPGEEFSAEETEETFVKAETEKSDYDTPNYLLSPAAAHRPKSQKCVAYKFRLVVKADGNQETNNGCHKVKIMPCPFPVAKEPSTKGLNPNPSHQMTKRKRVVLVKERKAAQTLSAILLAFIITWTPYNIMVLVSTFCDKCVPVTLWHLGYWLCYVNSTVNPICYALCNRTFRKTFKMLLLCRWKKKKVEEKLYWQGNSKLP

hM3Dq [2] = target: T3, hM3Dq (Homo sapiens, UniProt P20309, A239G/Y149C); assay: biochemical; assay type: binding
hM4Di [3] = target: T1, hM4Di; assay: [3H]QNB competition binding
hM4 = target: T4, hM4 (Homo sapiens, UniProt P08173); assay: [3H]QNB competition binding
T4 sequence (P08173 1-479): T1 sequence (P08173 1-479 Y113C/A203G) with C113Y, G203A

hM3Dq [4] = target: T3, hM3Dq; assay: cell-based
hM3 = hM3 (Homo sapiens, UniProt P20309); assay: biochemical; assay type: binding
hM1 = target: T5, hM1 (Homo sapiens, UniProt P11229); assay: radioligand competition binding
T5 sequence (P11229 1-460): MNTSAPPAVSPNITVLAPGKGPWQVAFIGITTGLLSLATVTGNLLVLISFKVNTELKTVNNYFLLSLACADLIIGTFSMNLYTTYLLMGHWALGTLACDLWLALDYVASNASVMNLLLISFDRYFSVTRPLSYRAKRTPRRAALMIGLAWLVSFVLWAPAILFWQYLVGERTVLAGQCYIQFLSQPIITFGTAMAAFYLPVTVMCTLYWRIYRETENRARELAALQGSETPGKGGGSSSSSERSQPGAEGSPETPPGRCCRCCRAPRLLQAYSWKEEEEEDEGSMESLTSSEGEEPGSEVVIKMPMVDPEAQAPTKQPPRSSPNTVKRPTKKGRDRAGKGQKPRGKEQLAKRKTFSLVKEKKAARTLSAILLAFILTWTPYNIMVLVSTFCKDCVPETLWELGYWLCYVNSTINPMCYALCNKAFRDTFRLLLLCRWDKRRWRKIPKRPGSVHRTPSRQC

T3 sequence (P20309 whole entry Y149C/A239G): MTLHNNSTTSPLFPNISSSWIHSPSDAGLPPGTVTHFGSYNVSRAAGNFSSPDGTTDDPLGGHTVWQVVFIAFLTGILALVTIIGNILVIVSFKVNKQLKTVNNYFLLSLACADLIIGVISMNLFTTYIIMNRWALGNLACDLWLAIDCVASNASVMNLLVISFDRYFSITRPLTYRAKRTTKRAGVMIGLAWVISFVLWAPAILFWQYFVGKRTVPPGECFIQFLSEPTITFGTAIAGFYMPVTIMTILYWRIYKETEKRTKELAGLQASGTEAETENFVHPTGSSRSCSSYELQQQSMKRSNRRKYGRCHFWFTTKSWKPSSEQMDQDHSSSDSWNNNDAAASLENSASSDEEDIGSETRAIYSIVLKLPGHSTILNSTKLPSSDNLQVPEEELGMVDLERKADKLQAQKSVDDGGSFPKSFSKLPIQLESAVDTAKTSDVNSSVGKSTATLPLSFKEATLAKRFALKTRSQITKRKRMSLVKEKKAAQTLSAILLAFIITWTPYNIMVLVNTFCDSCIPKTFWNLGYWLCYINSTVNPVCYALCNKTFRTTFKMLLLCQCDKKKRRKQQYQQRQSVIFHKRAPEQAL
Chain of hM3 (P20309 whole entry): as the sequence (P20309 whole entry Y149C/A239G) above, with C149Y, G239A counted along it

| Structure (SMILES) | EC50 (hM4Di [1]) [nM] | Ki (hM5) [nM] | Ki (hM3Dq [2]) [nM] | Ki (hM4Di [3]) [nM] | Ki (hM4) [nM] | EC50 (hM3Dq [4]) [nM] | Ki (hM3) [nM] | Ki (hM1) [nM] | Ki (hM3; HEK293T, [3H]QNB […]) [nM] |
| --- | --- | --- | --- | --- | --- | --- | --- | --- | --- |
| CN1CCN(C2=Nc3ccccc3Nc3ccccc32)CC1 [DCZ, 11-(4-methyl-1-piperazinyl)-5H-dibenzo(b,e)(1,4)diazepine] | 0.081 | 55 | 6.3 | 4.2 | 210 | 0.13 | 230 | 83 |  |
| C[N+]1([O-])CCN(C2=Nc3cc(Cl)ccc3Nc3ccccc32)CC1 [CNO] | 7.3 |  | 680 | 360 | 3700 | 15 | 2600 |  |  |
| c1ccc2c(c1)N=C(N1CCNCC1)c1ccccc1N2 [C21] | 2.6 |  | 850 |  |  | 5.2 |  |  | 270 |
